Test results taken from US10351548B2, “2-oxo-1,2-dihydropyridine-3-carboxamide compounds and their use as inhibitors of PDK1” (INTERNATIONAL SOCIETY FOR DRUG DEVELOPMENT S.R.L., priority 2015, dated 2019).

Tested on: GSCs isolated from U87MG cells
Experiment: Annexin V and 7-AAD staining in GSCs (apoptosis)
Assay type: cell-based, human
Conditions: 10 μM, 7 days
Description: Dual staining with Annexin V coniugated to fluorescein-isothiocyanate (FITC) and 7-amino-actinomysin (7-AAD) was performed using the commercially available kit (Muse Annexin V and Dead Cell Kit; Merck KGaA, Darmstadt, Germany). U87MG cells or GSCs were treated with DMSO (control), SA16, SA23 or IB35 for 72 h or seven days, respectively. At the end of the treatment periods, the percentages of living, apoptotic and dead cells were acquired and analysed by Muse™ Cell Analyzer as previously described (Daniele, S., et al., Combined inhibition of AKT/mTOR and MDM2 enhances Glioblastoma Multiforme cell apoptosis and differentiation of cancer stem cells. Sci. Rep., 2015. 5.).
It was investigated if the reduction of cell proliferation elicited by the two compounds could be associated to cell apoptosis. […] At the end of treatments, the cells were collected and the degree of phosphatidylserine externalisation was evaluated using the Annexin V protocol, as above described (FIG. 10). The data were expressed as the percentage of apoptotic cells (early-apoptotic in white, late-apoptotic/necrotic in grey) relative to the total number of cells and represented in FIG. 11. […] The significance of the differences was determined with a one-way ANOVA with Bonferroni post-test (*** p<0.001 vs. control).

## O=C(CNC(=O)c1cccn(Cc2ccc(F)c(F)c2)c1=O)Nc1ccc2c(c1)/C(=C/c1cnc[nH]1)C(=O)N2 [IB35, (Z)—N-(2-((3-((1H-imidazol-5-yl)methylene)-2-oxoindolin-5-yl)amino)-2-oxoethyl)-1-(3,4-difluorobenzyl)-2-oxo-1,2-dihydro pyridine-3-carboxamide]
  percentage of total apoptotic cells: 38.5±3.9%
